From PubChem BioAssay AID248 (DTP/NCI, 2004)
“And” between values parts separate entries of the source, which are not always exact repeats. Equal values may be shown once. Toxic doses and inconclusive results are not listed. Cut-off read from the data, not from the text of the source: active = T/C of 150% or more; inactive = T/C below 125%.

Tested on: L1210 leukemia ip in BDF1 mice, survival T/C
Assay: NCI In Vivo Anticancer Drug Screen. Data for tumor model L1210 Leukemia (intraperitoneal) in B6D2F1 (BDF1) mice
Conditions: endpoint: mean survival time, higher = longer survival
In short: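 Read-out is survival time, reported as the treated-group measurement over the vehicle-control measurement.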

[1] = dose: 100.0 mg/kg/injection, schedule: Q01DX009 (ip), vehicle: Klucel (hydroxypropylcellulose) (HPC)
[2] = dose: 200.0 mg/kg/injection, schedule: Q01DX009 (ip), vehicle: Klucel (hydroxypropylcellulose) (HPC)
[3] = dose: 400.0 mg/kg/injection, schedule: Q01DX009 (ip), vehicle: Klucel (hydroxypropylcellulose) (HPC)
[4] = dose: 100.0 mg/kg/injection, schedule: Q04DX002 (ip), vehicle: Klucel (hydroxypropylcellulose) (HPC)
[5] = dose: 200.0 mg/kg/injection, schedule: Q04DX002 (ip), vehicle: Klucel (hydroxypropylcellulose) (HPC)
[6] = dose: 400.0 mg/kg/injection, schedule: Q04DX002 (ip), vehicle: Klucel (hydroxypropylcellulose) (HPC)
[7] = dose: 100.0 mg/kg/injection, schedule: Q04DX003 (ip), vehicle: Klucel (hydroxypropylcellulose) (HPC)
[8] = dose: 200.0 mg/kg/injection, schedule: Q04DX003 (ip), vehicle: Klucel (hydroxypropylcellulose) (HPC)
[9] = dose: 400.0 mg/kg/injection, schedule: Q04DX003 (ip), vehicle: Klucel (hydroxypropylcellulose) (HPC)
[10] = dose: 100.0 mg/kg/injection, schedule: Q01DX001 (ip), vehicle: saline

Measured: T/C

NC(N)=N/N=C/c1ccccc1O
inactive: dose: 15.0 mg/kg/injection, schedule: Q01DX Z (ip), vehicle: saline 98 % of control and 91 % of control | dose: 31.0 mg/kg/injection, schedule: Q01DX Z (ip), vehicle: saline 87 % of control and 91 % of control | dose: 63.0 mg/kg/injection, schedule: Q01DX Z (ip), vehicle: saline 87 % of control | dose: 125.0 mg/kg/injection, schedule: Q01DX Z (ip), vehicle: saline 87 % of control

C=CCCCCCCCCC(=O)N/N=C/c1cccs1
inactive: [1] 95 % of control | [2] 100 % of control | [3] 105 % of control

N#Cc1ccc(OCCCCCOc2ccc(C#N)cc2I)c(I)c1
inactive: dose: 25.0 mg/kg/injection, schedule: Q04DX002 (ip), vehicle: Klucel (hydroxypropylcellulose) (HPC) 100 % of control | dose: 50.0 mg/kg/injection, schedule: Q04DX002 (ip), vehicle: Klucel (hydroxypropylcellulose) (HPC) 100 % of control | [4] 95 % of control and 97 % of control | [5] 89 % of control | [6] 94 % of control

CN(C)C1CS(=O)(=O)C1C1CS(=O)(=O)C1 (configuration not stated)
inactive: [4] 89 % of control | [5] 86 % of control | [6] 96 % of control

Nc1c(Cl)ncnc1Nc1ccc([N+](=O)[O-])cc1
inactive: dose: 100.0 mg/kg/injection, schedule: Q01DX001 (ip), vehicle: Klucel (hydroxypropylcellulose) (HPC) 89 % of control | dose: 200.0 mg/kg/injection, schedule: Q01DX001 (ip), vehicle: Klucel (hydroxypropylcellulose) (HPC) 94 % of control | dose: 400.0 mg/kg/injection, schedule: Q01DX001 (ip), vehicle: Klucel (hydroxypropylcellulose) (HPC) 92 % of control

Nn1c2ccccc2c2ccccc21
inactive: dose: 50.0 mg/kg/injection, schedule: Q01DX009 (ip), vehicle: Klucel (hydroxypropylcellulose) (HPC) 103 % of control | dose: 75.0 mg/kg/injection, schedule: Q01DX001 (ip), vehicle: carboxymethylcellulose (CMC) 101 % of control | [1] 103 % of control | dose: 150.0 mg/kg/injection, schedule: Q01DX001 (ip), vehicle: carboxymethylcellulose (CMC) 104 % of control | [2] 92 % of control | dose: 300.0 mg/kg/injection, schedule: Q01DX001 (ip), vehicle: carboxymethylcellulose (CMC) 96 % of control

CC(=O)CCCCCCCCCCC1CCC2OC12 (configuration not stated)
inactive: dose: 100.0 mg/kg/injection, schedule: Q01DX001 (ip), vehicle: other 101 % of control | dose: 100.0 mg/kg/injection, schedule: Q01DX009 (sc), vehicle: other 109 % of control | dose: 100.0 mg/kg/injection, schedule: Q04DX003 (ip), vehicle: other 95 % of control | dose: 200.0 mg/kg/injection, schedule: Q01DX001 (ip), vehicle: other 115 % of control | dose: 200.0 mg/kg/injection, schedule: Q01DX009 (sc), vehicle: other 98 % of control | dose: 200.0 mg/kg/injection, schedule: Q04DX003 (ip), vehicle: other 94 % of control | dose: 400.0 mg/kg/injection, schedule: Q01DX001 (ip), vehicle: other 106 % of control | dose: 400.0 mg/kg/injection, schedule: Q01DX009 (sc), vehicle: other 97 % of control | dose: 400.0 mg/kg/injection, schedule: Q04DX003 (ip), vehicle: other 102 % of control

Cc1ccc(S(=O)(=O)NC(=O)NCCCS(C)=O)cc1 (configuration not stated)
inactive: dose: 100.0 mg/kg/injection, schedule: Q04DX003 (ip), vehicle: saline with Tween-80 100 % of control | dose: 200.0 mg/kg/injection, schedule: Q04DX003 (ip), vehicle: saline with Tween-80 102 % of control | dose: 400.0 mg/kg/injection, schedule: Q04DX003 (ip), vehicle: saline with Tween-80 100 % of control

Cc1cc(=O)cc(C(=O)O)o1
inactive: dose: 75.0 mg/kg/injection, schedule: Q01DX001 (ip), vehicle: saline 107 % of control | dose: 150.0 mg/kg/injection, schedule: Q01DX001 (ip), vehicle: saline 107 % of control | dose: 300.0 mg/kg/injection, schedule: Q01DX001 (ip), vehicle: saline 109 % of control

Clc1cccc(Cl)c1C[N+]12CN3CN(CN(C3)C1)C2
inactive: dose: 30.0 mg/kg/injection, schedule: Q01DX015 (ip), vehicle: saline 95 % of control | dose: 60.0 mg/kg/injection, schedule: Q01DX015 (ip), vehicle: saline 100 % of control | dose: 120.0 mg/kg/injection, schedule: Q01DX015 (ip), vehicle: saline 105 % of control

CC1(C)OC2COC(c3[nH]nc(C(N)=O)c3C(=O)NN)C2O1 (configuration not stated)
inactive: dose: 100.0 mg/kg/injection, schedule: Q01DX005 (ip), vehicle: saline 103 % of control | dose: 200.0 mg/kg/injection, schedule: Q01DX005 (ip), vehicle: saline 97 % of control

CCOC(=O)/C=C(/Nc1ccc(C(=O)c2ccccc2)cc1)C(=O)OCC
inactive: dose: 100.0 mg/kg/injection, schedule: Q01DX001 (ip), vehicle: acetone 87 % of control | dose: 100.0 mg/kg/injection, schedule: Q04DX003 (ip), vehicle: acetone 95 % of control | dose: 200.0 mg/kg/injection, schedule: Q01DX001 (ip), vehicle: acetone 92 % of control | dose: 200.0 mg/kg/injection, schedule: Q04DX003 (ip), vehicle: acetone 93 % of control | dose: 400.0 mg/kg/injection, schedule: Q01DX001 (ip), vehicle: acetone 90 % of control | dose: 400.0 mg/kg/injection, schedule: Q04DX003 (ip), vehicle: acetone 98 % of control

COc1ccc(OC)c(NC(=O)Nc2cc(C)ccc2OC)c1
inactive: [7] 95 % of control | [8] 92 % of control | [9] 97 % of control

CC(NC(=O)OCc1ccccc1)C(=O)O (configuration not stated)
inactive: [1] 97 % of control | [4] 95 % of control | [7] 100 % of control | [2] 90 % of control | [5] 94 % of control | [8] 100 % of control | [3] 97 % of control | [6] 97 % of control | [9] 95 % of control

CCc1nc(N)nc(N)c1-c1ccc(Cl)cc1
inactive: dose: 22.0 mg/kg/injection, schedule: Q01DX Z (ip), vehicle: carboxymethylcellulose (CMC) 120 % of control | dose: 25.0 mg/kg/injection, schedule: Q01DX015 (ip), vehicle: carboxymethylcellulose (CMC) 110 % of control | dose: 35.0 mg/kg/injection, schedule: Q01DX Z (ip), vehicle: carboxymethylcellulose (CMC) 118 % of control | dose: 50.0 mg/kg/injection, schedule: Q01DX015 (ip), vehicle: carboxymethylcellulose (CMC) 116 % of control | dose: 75.0 mg/kg/injection, schedule: Q01DX Z (ip), vehicle: carboxymethylcellulose (CMC) 91 % of control | dose: 200.0 mg/kg/injection, schedule: Q01DX015 (ip), vehicle: carboxymethylcellulose (CMC) 104 % of control

c1cc[c]([Sb]([S]c2ncnc3nc[nH]c23)[c]2ccccc2)cc1
inactive: dose: 5.0 mg/kg/injection, schedule: Q01DX001 (ip), vehicle: other 97 % of control | dose: 10.0 mg/kg/injection, schedule: Q01DX001 (ip), vehicle: other 116 % of control

CCn1c(=S)[nH]c2ccccc2c1=O
inactive: dose: 100.0 mg/kg/injection, schedule: Q04DX002 (ip), vehicle: saline with Tween-80 98 % of control | dose: 200.0 mg/kg/injection, schedule: Q04DX002 (ip), vehicle: saline with Tween-80 109 % of control | dose: 400.0 mg/kg/injection, schedule: Q04DX002 (ip), vehicle: saline with Tween-80 102 % of control

CC1(C)N=C(N)N=C(N)N1c1ccc(CC(C(=O)Nc2cccc(S(=O)(=O)F)c2)c2ccccc2)cc1 (configuration not stated)
inactive: dose: 25.0 mg/kg/injection, schedule: Q01DX001 (ip), vehicle: saline 105 % of control | dose: 50.0 mg/kg/injection, schedule: Q01DX001 (ip), vehicle: saline 106 % of control | dose: 87.5 mg/kg/injection, schedule: Q01DX001 (ip), vehicle: saline 94 % of control | [10] 97 % of control

Cc1cccc(C2=N/C(=C\c3cccc([N+](=O)[O-])c3)C(=O)O2)c1
inactive: [4] 92 % of control | [5] 92 % of control | [6] 100 % of control

NC(=S)N1CCCC1
inactive: [7] 93 % of control | [8] 96 % of control | [9] 93 % of control

Cn1c2c(c(=O)n(C)c1=O)C(=Nc1ccccc1N)C(=O)N2
inactive: [10] 101 % of control | dose: 200.0 mg/kg/injection, schedule: Q01DX001 (ip), vehicle: saline 101 % of control | dose: 400.0 mg/kg/injection, schedule: Q01DX001 (ip), vehicle: saline 90 % of control

NC(=O)C(NC(=O)c1ccc([N+](=O)[O-])cc1)Sc1ccccc1 (configuration not stated)
inactive: [4] 109 % of control | [5] 106 % of control | [6] 101 % of control

CCOC(=O)c1cnc(C)nc1Nc1ccccc1Br
inactive: [7] 98 % of control | [8] 93 % of control | [9] 101 % of control
